# From patent US20180079724A1, “SULFONIC ACID DERIVATIVE COMPOUND, PHOTOACID GENERATOR, RESIST COMPOSITION, CATIONIC POLYMERIZATION INITIATOR, AND CATIONICALLY POLYMERIZABLE COMPOSITION” (ADEKA CORPORATION, priority 2015, published 2018)
# Columns and labels:
# Type in all cases: physicochemical
# [1] = Acid generation rate (photodegradation rate by HPLC after 365 nm UV irradiation); conditions: 365 nm UV 100 mW/cm^2, 1.5×10^−4 mol/L in acetonitrile/water=9/1
# Experimental: For each of the sulfonic acid derivative compound of Compound No. 4 and Comparative Compound 1, a 1.5×10^−4 mol/L acetonitrile/water mixed solution (volume ratio: acetonitrile/water=9/1) was prepared, and exactly 5.0 mL of the mixed solution was placed in a Petri dish having an inner diameter of 42 mm. Using a UV lamp and a cut filter transmitting only light having a wavelength of about 365 nm, which are manufactured by Hoya Candeo Optronics Corporation, the mixed solution was irradiated with UV having an intensity of 100 mW/cm^2. The irradiation was performed for 0.5 seconds, 1 second and 3 seconds for each solution. After this exposure, the photodegradation rate (%) was determined by HPLC as the acid generation rate.
# [2] = Solubility to propylene glycol monomethyl ether acetate; conditions: propylene glycol monomethyl ether acetate at 25° C., 1%-by-mass increments
# Experimental: (§1) The sulfonic acid derivative compound of Compound No. 4 and Comparative Compound 1 represented by the formula below were each dissolved in acetonitrile, and their absorption spectra were measured using a solar photometer U-3010 to determine the values of λmax and α (molar extinction coefficient) for absorption in a range of 300 nm to 400 nm as well as the value of E at 365 nm. In addition, their solubility to propylene glycol monomethyl ether acetate at 25° C. was evaluated. As for the solubility, the concentration of each compound was increased by 1%-by-mass increments, and the concentration at which no compound was left undissolved was determined to indicate the solubility in terms of this concentration.
# [3] = UV absorption spectrum in acetonitrile; conditions: for Maximum absorption wavelength (nm): absorption in a range of 300 nm to 400 nm; for Molar extinction coefficient ϵ (at maximum absorption wavelength): at λmax in 300 nm to 400 nm
# Experimental: as §1
# [4] = Transmittance at 365 nm; conditions: in acetonitrile
# Experimental: The sulfonic acid derivative compound of Compound No. 4 and Comparative Compound 2 represented by the formula below were each dissolved in acetonitrile, and their absorption spectra were measured using a solar photometer U-3010 to determine the transmittance at 365 nm.
Photodegradation rate (%) ([1]; 0.5 seconds),Photodegradation rate (%) ([1]; 1 second),Photodegradation rate (%) ([1]; 3 seconds),Solubility (% by mass) [2],"Molar extinction coefficient, ϵ, at 365 nm [3]",Maximum absorption wavelength (nm) [3],Molar extinction coefficient ϵ (at maximum absorption wavelength) [3],Transmittance at 365 nm (%) [4],SMILES
21.4%,36.9%,68.4%,1.9 % by mass,0.7 × 10^3,336.0 nm,1.42 × 10^4,–,O=C1c2cccc3cccc(c23)C(=O)N1OS(=O)(=O)C(F)(F)F [Comparative Compound 1]
–,–,–,–,–,–,–,1.1%,CCCCc1ccc2c3c(cccc13)C(=O)N(OS(=O)(=O)C(F)(F)F)C2=O [Comparative Compound 2]
62.0%,86.7%,100%,20 % by mass,5.40 × 10^3,339.5 nm,1.31 × 10^4,34.1%,CCCCc1cc2c3c(cccc3c1)C(=O)N(OS(=O)(=O)C(F)(F)F)C2=O [Compound No. 4]
